Paper PMC5589637, “New perspectives of cobalt tris(bipyridine) system: anti-cancer effect and its collateral sensitivity towards multidrug-resistant (MDR) cancers” (Oncotarget, 2017)

Columns and labels:
[1] = system: H1299 (lung cancer) cells; assay: MTT cytotoxicity assay, H1299; format: cell-based, human; conditions: 72 h
Protocol: (§1) All tested compounds were dissolved in DMSO at a final concentration of 50 mmol/L and stored at −20°C before use. Cytotoxicity was assessed by using the 3-(4,5-dimethylthiazol-2-yl)-2, 5-diphenyltetrazolium bromide (MTT) (5.0 mg/ml) assay as previously described. Briefly, 4×10^3 cells per well were seeded in 96-well plates before drug treatments. After overnight culture, the cells were then exposed to different concentrations of selected compounds ([…]) for 72 hours. Cells without drug treatment were used as control. Subsequently, MTT (10 μL) solution was added to each well and incubated at 37°C for 4 hours followed by the addition of 100 μL solubilization buffer (10%SDS in 0.01 mol/L HCl) and overnight incubation. A570 nm was then determined in each well on the next day. The percentage of cell viability was calculated using the following formula: Cell viability (%) = Atreated/Acontrol × 100. Data were obtained from three independent experiments.

[2] = system: LLC-1 (mouse lung cancer) cells; assay: MTT cytotoxicity assay, LLC-1; format: cell-based; conditions: LLC-1, MTT, 72 h
Protocol: as §1

[3] = system: normal human LO2 hepatocytes; assay: MTT cytotoxicity assay, LO2; format: cell-based; conditions: 72 h
Protocol: as §1

HeLa cancer cells [4] = assay: Endogenous autophagy detection (LC3-II puncta immunofluorescence); format: cell-based; conditions: 24 h
Protocol: The detection of endogenous LC3 was conducted using immunofluorescence staining method as described below. In brief, cobalt complex 2-treated HeLa cancer cells on cover slips were fixed with 4% paraformaldehyde (Sigma) for 20 min at room temperature and then rinsed with PBS. Coverslips were immersed in methanol at room temperature for 2 min. After washing with PBS, the cells were then incubated with anti-LC3 (1:200) in TBST (100 mM Tris HCl, pH 7.5, 150 mM NaCl, 0.05% Tween 20 and 5% BSA) overnight at 4 °C. After washing with PBS, the cells were incubated with anti-mouse secondary antibody (TRITC) (1:200) in TBST containing 5% BSA at 37°C for 1 hour in the dark. The coverslips were then mounted with FluorSave™ mounting media (Calbiochem, San Diego, CA, USA) for fluorescence imaging and localization of LC3 autophagosomes were captured under the API Delta Vision Live-cell Imaging System (Applied Precision Inc.,GE Healthcare Company, Washington, USA). To quantify autophagy, guidelines were followed. The percentage of cells with autophagic induction was calculated by the number of the cells with increased formation of punctate LC3 fluorescence dots (≥ 10 dots/cell) over the total number of immunofluorescence-positive cells in the same field. A minimum of 1000 cells from randomly selected fields were scored.

HeLa cancer cells [5] = assay: Western blot of S phase cell cycle markers; format: cell-based; conditions: 24 h, 10 and 15 μM
Protocol: Western blot analysis was carried out following standard methods. Cells were lysed with RIPA lysis buffer with protease and phosphatase inhibitor cocktails. Protein concentrations were determined using the Bio-Rad protein assay (Bio-Rad Laboratories, Inc., Hercules, CA, USA). After electrophoresis, the proteins from SDS/PAGE were electro-transferred to a Hybond enhanced chemiluminescence nitrocellulose membrane (Amersham Biosciences, NJ, USA), which was then blocked with 5% dried milk for 1 hour. After washing, the blot was incubated with the indicated primary antibodies overnight at 4°C. Detection was performed using appropriated HRP-conjugated secondary antibodies for 1 hour at RT followed by chemiluminescence (Invitrogen).

[6] = system: MCF-7 (breast cancer) cells; assay: MTT cytotoxicity assay, MCF-7; format: cell-based; conditions: MCF-7, MTT, 72 h
Protocol: as §1

[7] = system: HepG2 (liver cancer) cells; assay: MTT cytotoxicity assay, HepG2; format: cell-based; conditions: 72 h
Protocol: as §1

[8] = system: MCF-7 taxol-sensitive cancer cells; assay: MTT cytotoxicity, taxol-sensitive MCF-7; format: cell-based; conditions: 72 h
Source text: (§2) All cells were obtained from the American Type Culture Collection (Rockville, MD, USA) unless otherwise specified. Immortalized wild-type and Atg7-deficient mouse embryonic fibroblasts (MEFs) were kindly provided by Professor Masaaki Komatsu (Juntendo University, School of Medicine, Japan). Taxol-resistant types of MCF-7, HCT-8, A549 cancers cells and cisplatin-resistant SGC7901 cancer cells were purchased from KeyGEN BioTECH, China. Cisplatin-sensitive or –resistant A2780, OV2008 and C13 cancer cells were kindly provided by Prof. Benjamin Tsang (Department of Obstetrics and Gynecology and Department of Cellular and Molecular Medicine, University of Ottawa, Canada). HCT116 p53^+/+ and p53^−/− isogenic human colon cancer cells were kindly provided by Professor Bert Vogelstein (Ludwig Center at Johns Hopkins, Howard Hughes Medical Institute, USA). All media were supplemented with 10% fetal bovine serum and antibiotics penicillin (50 U/ml) and streptomycin (50 μg/ml; Invitrogen, Paisley, Scotland, UK). All cell cultures were incubated at 37°C in a 5% humidified CO2 incubator.
as §1

[9] = system: A549 taxol-sensitive cancer cells; assay: MTT cytotoxicity, taxol-sensitive A549; format: cell-based; conditions: 72 h
Source text: as §2, §1

P-gp = P-gp (Homo sapiens, UniProt P08183); conditions: taxol-resistant MCF-7, HCT-8 and A549, 0.5-10 μM, 4 h, dose-dependent
Protocol: Taxol-resistant cancer cells were seeded in 6 well plate with 2 × 10^5 cells each well and cultured for 24 h at 37°C in an atmosphere containing 5% CO2. […] Subsequently, 5 μg/mL of Rho123 was added to each well and the wells were incubated for another 1 h at 37°C. The accumulation of Rho123 was stopped by washing the cells five times with ice-cold PBS. The cells were then resuspended in 400 μL PBS for flow cytometry analysis. Intracellular fluorescence was measured using a flow cytometer at an excitation wavelength of 488 nm and emission wavelength of 525 nm. All data acquisition and analysis were performed with CellQuest (BD Biosciences, San Jose, CA, USA) with at least three independent experiments. Results were shown as the mean of fluorescence intensity.

[10] = Pharmacokinetic study (HPLC-MS of blood samples); format: in vivo; conditions: male C57BL/6 mice
Protocol: Pharmacokinetic study of cobalt complex 2 was performed in male C57BL/6 mice by the dosage of 40 mg/kg. The source of mouse and practice of husbandry were the same as described in the methodology section of LLC-1 Xenograft Tumor experiment. Cobalt complex 2 was diluted in the formula (PEG400: H2O: Ethanol = 6:3:1) and administered by intraperitoneal in a volume of 0.005 mL/g bodyweight. After dosing, blood samples were collected to sodium heparin anticoagulant tube at different time points (5, 15, 30 min, and then 1, 2, 4, 8, 12 and 24 hours); 4 mice were used for each time point. Approximately 200 μL of blood was collected via orbital vein from each anesthetized mouse by isoflurane. Plasma was separated by centrifugation at 3000 g for 10 minutes at 4°C. The plasma was protected and stored at −80°C until analyzed by liquid chromatography-mass spectrometry/mass spectrometry (LC-MS/MS) for quantification.
Plasma samples were thawed at room temperature and then vortexed to ensure sample solution homogeneity. Firstly, a 20 μL aliquot of each plasma sample were loaded into 1.5 mL tube, 100 μL acetonitrile was added, vortexed then centrifuged at 13000 rpm for 10 min. the supernatant was collected. The plasma cobalt complex 2 concentrations were quantified using Thermo HPLC Ultimate 3000 system. The compound in plasma samples were analyzed by using the Agilent Zorbax Eclipse Plus C-18 column with a particle size of 1.8 μm. The parameters of the gradient elution program were applied as follows: mobile phase A (0.1% formic acid in water) and mobile phase B acetonitrile: 0–5.5 min, 20% B; 5.5–7 min, 90% B; 7–10 min, 20% B. The column and autosampler temperature were maintained at 40 and 4 °C, respectively. The gas temperature was set 320 °C with flow rate (0.8 mL/min), gases were set at 10 psi for the nebulizer, capillary, 3500 V.

P-gp, sequence (P08183 whole entry): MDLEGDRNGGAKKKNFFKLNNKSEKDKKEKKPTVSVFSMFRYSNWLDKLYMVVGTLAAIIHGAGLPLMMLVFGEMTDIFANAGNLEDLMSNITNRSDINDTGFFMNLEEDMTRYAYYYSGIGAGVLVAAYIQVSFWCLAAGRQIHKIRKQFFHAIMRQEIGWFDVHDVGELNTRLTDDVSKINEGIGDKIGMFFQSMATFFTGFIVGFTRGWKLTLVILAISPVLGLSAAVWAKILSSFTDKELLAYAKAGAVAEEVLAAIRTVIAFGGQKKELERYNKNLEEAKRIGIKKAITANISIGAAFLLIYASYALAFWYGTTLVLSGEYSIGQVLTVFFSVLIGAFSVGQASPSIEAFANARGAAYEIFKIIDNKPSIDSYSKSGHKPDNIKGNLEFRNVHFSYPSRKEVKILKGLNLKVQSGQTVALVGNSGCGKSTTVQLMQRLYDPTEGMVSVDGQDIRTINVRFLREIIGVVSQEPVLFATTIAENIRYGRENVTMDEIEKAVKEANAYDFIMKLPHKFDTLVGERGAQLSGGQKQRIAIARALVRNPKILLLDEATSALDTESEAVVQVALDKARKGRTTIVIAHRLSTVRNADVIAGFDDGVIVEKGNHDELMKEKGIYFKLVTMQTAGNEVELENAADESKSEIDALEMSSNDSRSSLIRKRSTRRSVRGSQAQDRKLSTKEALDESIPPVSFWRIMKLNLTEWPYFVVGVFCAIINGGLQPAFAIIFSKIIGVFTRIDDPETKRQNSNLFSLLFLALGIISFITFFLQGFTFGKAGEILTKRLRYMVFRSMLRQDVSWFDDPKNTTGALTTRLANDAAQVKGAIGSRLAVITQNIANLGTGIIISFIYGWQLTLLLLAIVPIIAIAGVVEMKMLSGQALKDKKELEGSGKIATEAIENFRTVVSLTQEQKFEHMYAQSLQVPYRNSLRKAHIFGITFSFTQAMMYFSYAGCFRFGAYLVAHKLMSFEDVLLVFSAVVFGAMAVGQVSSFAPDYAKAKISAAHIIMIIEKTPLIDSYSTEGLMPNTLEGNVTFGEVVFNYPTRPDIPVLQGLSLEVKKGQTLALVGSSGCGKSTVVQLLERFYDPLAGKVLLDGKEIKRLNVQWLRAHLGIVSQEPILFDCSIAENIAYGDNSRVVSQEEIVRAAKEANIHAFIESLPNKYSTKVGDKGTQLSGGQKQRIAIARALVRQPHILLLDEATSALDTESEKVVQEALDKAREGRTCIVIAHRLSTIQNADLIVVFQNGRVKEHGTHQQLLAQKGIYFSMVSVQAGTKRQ

Cc1ccnc(-c2cc(C)ccn2)c1.Cc1ccnc(-c2cc(C)ccn2)c1.Cc1ccnc(-c2cc(C)ccn2)c1.F[P-](F)(F)(F)(F)F.F[P-](F)(F)(F)(F)F.F[P-](F)(F)(F)(F)F.[Co+3] [complex 2, [Co^III(4,4’-Me2-bpy)3](PF6)3]
IC50 [1]: 2840 nM | IC50 [2]: 3.39 µM | IC50 [3]: 13.2 µM | autophagy induction (percentage of cells with endogenous LC3-II puncta formation) (HeLa cancer cells [4]): induce autophagy in dose-dependent manner | protein level of cyclin A and E2F (HeLa cancer cells [5]): significant accumulation | protein level of cyclin D and E, cdk4, and cdk2 (HeLa cancer cells [5]): decreased | IC50 [6]: 6.03 µM | IC50 [7]: 5.44 µM | IC50 [8]: 4 µM | IC50 [9]: 11.5 µM | effect on P-gp activity (Rho123 accumulation) (P-gp): induced inhibitory effects towards P-gp activity in all the treated cell lines | species detected in blood samples by HPLC-MS ([10]; 40 mg/kg intraperitoneal of complex 2, 5 min to 24 hours): neither cobalt complex 2 nor its decomposed species was observed | metabolism after absorption ([10]; 40 mg/kg intraperitoneal, after 2-hour time interval): almost complete metabolism
